The values that follow come from US12428406B2 (PMV Pharmaceuticals, Inc., priority 2019, dated 2025).

T1 sequence (P04637 94-312, change not shown): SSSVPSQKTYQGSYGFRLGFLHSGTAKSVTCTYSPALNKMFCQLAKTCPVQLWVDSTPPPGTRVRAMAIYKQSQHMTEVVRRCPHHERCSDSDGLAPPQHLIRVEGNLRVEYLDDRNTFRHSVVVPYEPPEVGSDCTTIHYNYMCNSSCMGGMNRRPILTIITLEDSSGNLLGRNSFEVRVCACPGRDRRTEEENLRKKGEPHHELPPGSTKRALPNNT

This test has as its target T1, p53 Y220C (Homo sapiens, UniProt P04637, Y220C).
T1 construct: The recombinant protein was a truncation mutant containing only amino acids 94-312 of p53; made in house; host or cells: E. coli
The test is described as follows: In vitro DNA binding activity assay (HTRF / TR-FRET): stabilization of p53 Y220C and increase of its DNA binding activity. Format: biochemical. Particulars: recombinant His-tagged p53 Y220C DNA binding domain (aa 94-312), biotin-labeled consensus DNA, incubated at 27° C. or 29° C. for 60 min. The gist of the method:
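Test compounds, diluted 3-fold in DMSO from 4.5 mM stocks, were incubated with bacterially expressed His-tagged p53 Y220C at room temperature for 15 min, and after a further step for 20 min. DNA binding was detected by time-resolved FRET between APC and europium labels. SC150 marks the concentration increasing binding by 50%.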
For the molecule `COc1cc(S(=O)(=O)N(CCO)CCO)ccc1NCC#Cc1cc2c(NC3CCN(C)CC3)cccc2n1CC(F)(F)F` [Compound 483A, N,N-bis(2-hydroxyethyl)-3-methoxy-4-[(3-{4-[(1-methylpiperidin-4-yl)amino]-1-(2,2,2-trifluoroethyl)-1H-indol-2-yl}prop-2-yn-1-yl)amino]benzene-1-sulfonamide], the “SC150 (concentration of the compound required to increase the DNA binding activity by 50%)” value is given as “+ (+ = 0 μM ≤ SC150 < 0.05 μM)”. The same measure for `CNS(=O)(=O)c1ccc(NCC#Cc2cc3c(NC4CCN(C)CC4)cccc3n2CC(F)(F)F)c(OC)c1` [Compound 484A, 3-methoxy-N-methyl-4-[(3-{4-[(1-methylpiperidin-4-yl)amino]-1-(2,2,2-trifluoroethyl)-1H-indol-2-yl}prop-2-yn-1-yl)amino]benzene-1-sulfonamide]: “+ (+ = 0 μM ≤ SC150 < 0.05 μM)”; for `COc1cc(S(=O)(=O)N2CCN(C)CC2)ccc1NCC#Cc1cc2c(NC3CCN(C)CC3)cccc2n1CC(F)(F)F` [Compound 485A, 2-[3-({2-methoxy-4-[(4-methylpiperazin-1-yl)sulfonyl]phenyl}amino)prop-1-yn-1-yl]-N-(1-methylpiperidin-4-yl)-1-(2,2,2-trifluoroethyl)-1H-indol-4-amine]: “+ (+ = 0 μM ≤ SC150 < 0.05 μM)”. For the molecule `CN1CCC(Nc2cccc3c2cc(C#CCNc2ccc(S(C)(=O)=O)cc2O)n3CC(F)(F)F)CC1` [Compound 486A, 5-methanesulfonyl-2-[(3-{4-[(1-methylpiperidin-4-yl)amino]-1-(2,2,2-trifluoroethyl)-1H-indol-2-yl}prop-2-yn-1-yl)amino]phenol], the “SC150 (concentration of the compound required to increase the DNA binding activity by 50%)” value is on record as “+ (+ = 0 μM ≤ SC150 < 0.05 μM)”. With `COc1cc(NC2CCN(C)CC2)c2cc(C#CCNc3ccc(S(C)(=O)=O)cc3OC)n(CC(F)(F)F)c2c1` [Compound 487A, 2-{3-[(4-methanesulfonyl-2-methoxyphenyl)amino]prop-1-yn-1-yl}-6-methoxy-N-(1-methylpiperidin-4-yl)-1-(2,2,2-trifluoroethyl)-1H-indol-4-amine], the “SC150 (concentration of the compound required to increase the DNA binding activity by 50%)” value was “++ (++ = 0.05 μM ≤ SC150 < 0.1 μM)”. Take `CN1CCC(Nc2cccc3c2cc(C#CCOc2ccc(S(C)(=O)=O)cc2N(C)C)n3CC(F)(F)F)CC1` [Compound 488A, 2-{3-[2-(dimethylamino)-4-methanesulfonylphenoxy]prop-1-yn-1-yl}-N-(1-methylpiperidin-4-yl)-1-(2,2,2-trifluoroethyl)-1H-indol-4-amine]: the “SC150 (concentration of the compound required to increase the DNA binding activity by 50%)” value is “+++ (+++ = 0.1 μM ≤ SC150 < 0.2 μM)”. With `CN1CCC(Nc2cccc3c2cc(C#CCNc2ccc(S(C)(=O)=O)cc2OCC#N)n3CC(F)(F)F)CC1` [Compound 489A, 2-{5-methanesulfonyl-2-[(3-{4-[(1-methylpiperidin-4-yl)amino]-1-(2,2,2-trifluoroethyl)-1H-indol-2-yl}prop-2-yn-1-yl)amino]phenoxy} acetonitrile], the “SC150 (concentration of the compound required to increase the DNA binding activity by 50%)” value was “+ (+ = 0 μM ≤ SC150 < 0.05 μM)”.

`CN1CCC(Nc2cccc3c2cc(C#CCNc2ccc(S(C)(=O)=O)cc2OCF)n3CC(F)(F)F)CC1` [Compound 490A, 2-(3-{[2-(fluoromethoxy)-4-methanesulfonylphenyl]amino}prop-1-yn-1-yl)-N-(1-methylpiperidin-4-yl)-1-(2,2,2-trifluoroethyl)-1H-indol-4-amine]: the “SC150 (concentration of the compound required to increase the DNA binding activity by 50%)” value is recorded as “+ (+ = 0 μM ≤ SC150 < 0.05 μM)”. For `COc1cc(C(=O)N2CCOCC2)ccc1NCC#Cc1cc2c(NC3CCN(C)CC3)cccc2n1CC(F)(F)F` [Compound 491A], the “SC150 (concentration of the compound required to increase the DNA binding activity by 50%)” value is on record as “+ (+ = 0 μM ≤ SC150 < 0.05 μM)”.

Take `COc1cc(C(=O)N2CCC(O)CC2)ccc1NCC#Cc1cc2c(NC3CCN(C)CC3)cccc2n1CC(F)(F)F` [Compound 492A]: the “SC150 (concentration of the compound required to increase the DNA binding activity by 50%)” value is given as “+ (+ = 0 μM ≤ SC150 < 0.05 μM)”. For the molecule `COc1cncc(-c2ccc(NCC#Cc3cc4c(NC5CCN(C)CC5)cccc4n3CC(F)(F)F)c(OC)c2)c1` [Compound 494A, 2-(3-{[2-methoxy-4-(5-methoxypyridin-3-yl)phenyl]amino}prop-1-yn-1-yl)-N-(1-methylpiperidin-4-yl)-1-(2,2,2-trifluoroethyl)-1H-indol-4-amine], the “SC150 (concentration of the compound required to increase the DNA binding activity by 50%)” value is “+ (+ = 0 μM ≤ SC150 < 0.05 μM)”. On to `COc1ccc(S(C)(=O)=O)cc1NCC#Cc1cc2c(NC3CCN(C)CC3)cccc2n1CC(F)(F)F` [Compound 495A, 2-{3-[(5-methanesulfonyl-2-methoxyphenyl)amino]prop-1-yn-1-yl}-N-(1-methylpiperidin-4-yl)-1-(2,2,2-trifluoroethyl)-1H-indol-4-amine], for which the “SC150 (concentration of the compound required to increase the DNA binding activity by 50%)” value is recorded as “+++ (+++ = 0.1 μM ≤ SC150 < 0.2 μM)”.

On to `COc1cc(C(=O)NCCO)ccc1NCC#Cc1cc2c(NC3CCN(C)CC3)cccc2n1CC(F)(F)F` [Compound 496A], for which the “SC150 (concentration of the compound required to increase the DNA binding activity by 50%)” value is reported as “+ (+ = 0 μM ≤ SC150 < 0.05 μM)”. `COCCNC(=O)c1ccc(NCC#Cc2cc3c(NC4CCN(C)CC4)cccc3n2CC(F)(F)F)c(OC)c1` [Compound 497A]: the “SC150 (concentration of the compound required to increase the DNA binding activity by 50%)” value was “+ (+ = 0 μM ≤ SC150 < 0.05 μM)”. Take `COc1cc(C(=O)NC2CCN(C)CC2)ccc1NCC#Cc1cc2c(NC3CCN(C)CC3)cccc2n1CC(F)(F)F` [Compound 498A]: the “SC150 (concentration of the compound required to increase the DNA binding activity by 50%)” value was “+ (+ = 0 μM ≤ SC150 < 0.05 μM)”. For `COc1cc(C(=O)N2CCC(N(C)C)CC2)ccc1NCC#Cc1cc2c(NC3CCN(C)CC3)cccc2n1CC(F)(F)F` [Compound 499A, 2-[3-({4-[4-(dimethylamino)piperidine-1-carbonyl]-2-methoxyphenyl}amino)prop-1-yn-1-yl]-N-(1-methylpiperidin-4-yl)-1-(2,2,2-trifluoroethyl)-1H-indol-4-amine] the value was “+ (+ = 0 μM ≤ SC150 < 0.05 μM)”. On to `COc1cc(C(=O)NC2CCOCC2)ccc1NCC#Cc1cc2c(NC3CCN(C)CC3)cccc2n1CC(F)(F)F` [Compound 500A, 3-methoxy-4-[(3-{4-[(1-methylpiperidin-4-yl)amino]-1-(2,2,2-trifluoroethyl)-1H-indol-2-yl}prop-2-yn-1-yl)amino]-N-(oxan-4-yl)benzamide], for which the “SC150 (concentration of the compound required to increase the DNA binding activity by 50%)” value is given as “+ (+ = 0 μM ≤ SC150 < 0.05 μM)”.

For `COc1cc(C(=O)N2CCN(C)CC2)ccc1NCC#Cc1cc2c(NC3CCN(C)CC3)cccc2n1CC(F)(F)F` [Compound 501A, 2-(3-{[2-methoxy-4-(4-methylpiperazine-1-carbonyl)phenyl]amino}prop-1-yn-1-yl)-N-(1-methylpiperidin-4-yl)-1-(2,2,2-trifluoroethyl)-1H-indol-4-amine], the “SC150 (concentration of the compound required to increase the DNA binding activity by 50%)” value is “+ (+ = 0 μM ≤ SC150 < 0.05 μM)”.

Regarding `COc1cc(C(=O)N2CC3(COC3)C2)ccc1NCC#Cc1cc2c(NC3CCN(C)CC3)cccc2n1CC(F)(F)F` [Compound 502A, 2-{3-[(2-methoxy-4-{2-oxa-6-azaspiro[3.3]heptane-6-carbonyl}phenyl)amino]prop-1-yn-1-yl}-N-(1-methylpiperidin-4-yl)-1-(2,2,2-trifluoroethyl)-1H-indol-4-amine], the “SC150 (concentration of the compound required to increase the DNA binding activity by 50%)” value is on record as “+ (+ = 0 μM ≤ SC150 < 0.05 μM)”.

As for `COc1cc(-c2cccnc2)ccc1NCC#Cc1cc2c(NC3CCN(C)CC3)cccc2n1CC(F)(F)F` [Compound 503A, 2-(3-{[2-methoxy-4-(pyridin-3-yl)phenyl]amino}prop-1-yn-1-yl)-N-(1-methylpiperidin-4-yl)-1-(2,2,2-trifluoroethyl)-1H-indol-4-amine], the “SC150 (concentration of the compound required to increase the DNA binding activity by 50%)” value is listed as “++ (++ = 0.05 μM ≤ SC150 < 0.1 μM)”. As to `COc1cc(-c2ccncc2)ccc1NCC#Cc1cc2c(NC3CCN(C)CC3)cccc2n1CC(F)(F)F` [Compound 504A, 2-(3-{[2-methoxy-4-(pyridin-4-yl)phenyl]amino}prop-1-yn-1-yl)-N-(1-methylpiperidin-4-yl)-1-(2,2,2-trifluoroethyl)-1H-indol-4-amine], the “SC150 (concentration of the compound required to increase the DNA binding activity by 50%)” value is listed as “+ (+ = 0 μM ≤ SC150 < 0.05 μM)”. In the case of `CN1CCC(Nc2cccc3c2cc(C#CCNC(=O)c2cccnc2)n3CC(F)(F)F)CC1` [Compound 505A, N-(3-{4-[(1-methylpiperidin-4-yl)amino]-1-(2,2,2-trifluoroethyl)-1H-indol-2-yl}prop-2-yn-1-yl)pyridine-3-carboxamide], the “SC150 (concentration of the compound required to increase the DNA binding activity by 50%)” value was “+++ (+++ = 0.1 μM ≤ SC150 < 0.2 μM)”. As for `COc1cc(-c2ncco2)ccc1NCC#Cc1cc2c(NC3CCN(C)CC3)cccc2n1CC(F)(F)F` [Compound 506A, 2-(3-{[2-methoxy-4-(1,3-oxazol-2-yl)phenyl]amino}prop-1-yn-1-yl)-N-(1-methylpiperidin-4-yl)-1-(2,2,2-trifluoroethyl)-1H-indol-4-amine], the “SC150 (concentration of the compound required to increase the DNA binding activity by 50%)” value was “+ (+ = 0 μM ≤ SC150 < 0.05 μM)”. For `CN1CCC(Nc2cccc3c2cc(C#CCNc2cccc(S(C)(=O)=O)c2)n3CC(F)(F)F)CC1` [Compound 507A, 2-{3-[(3-methanesulfonylphenyl)amino]prop-1-yn-1-yl}-N-(1-methylpiperidin-4-yl)-1-(2,2,2-trifluoroethyl)-1H-indol-4-amine], the “SC150 (concentration of the compound required to increase the DNA binding activity by 50%)” value was “++ (++ = 0.05 μM ≤ SC150 < 0.1 μM)”.

On to `CN1CCC(Nc2cccc3c2cc(C#CCNc2ccc(CN4CCOCC4)cc2)n3CC(F)(F)F)CC1` [Compound 508A, N-(1-methylpiperidin-4-yl)-2-[3-({4-[(morpholin-4-yl)methyl]phenyl}amino)prop-1-yn-1-yl]-1-(2,2,2-trifluoroethyl)-1H-indol-4-amine], for which the “SC150 (concentration of the compound required to increase the DNA binding activity by 50%)” value is “+ (+ = 0 μM ≤ SC150 < 0.05 μM)”.
